# Assay results reported in a melting point compilation (Tetko et al.; mined from patent text by program, amines drawn as free bases though some values may be those of a salt).
row,melting point [°C],Structure (SMILES)
1,205 to 206,CCCCCCCCc1c(C)[nH]c(C)c(C#N)c1=O
2,191,CCc1ccc2c(c1)cc(C(=O)Nc1nc(-c3c(OC)cc(C)cc3OC)n(CCC3CCCCC3)n1)n2CC(=O)OC
3,79,CCOC(=O)COc1ccc(C(=O)c2cccs2)c2ccccc12
4,123 to 125,Cc1cc(Oc2ccc(C#N)cc2C(F)(F)F)n[nH]1
5,118 to 119,O=C1NCCc2c(-c3ccc(Cl)c(C(F)(F)F)c3)[nH]c3cccc1c23
6,172 to 177,COc1ccc([N+](=O)[O-])cc1NC(C)=O
7,198 to 200,O=C1Nc2cc(C(F)(F)F)ccc2C1(O)c1cc(Cl)ccc1O (centres undefined)
8,87 to 88,CC(Cn1ccc(-c2ccccc2Cl)n1)C(=O)N(C)C (centres undefined)
9,74 to 75,COC1C=C(Br)C(=O)CO1 (centres undefined)
10,180 to 182,C[C@H](Cn1ncnn1)n1cnc2cc3c(=O)n(Cc4c[nH]nn4)nnc3cc2c1=O
11,232 to 235,C=C(C(=O)O)c1ccc2c(=O)c3ccccc3ccc2c1
12,187 to 188,CN1CCN(c2cccc3c2C[C@H](NC(=O)c2csc(-c4ccncc4)n2)CC3)CC1
13,30 to 35,O=C(Cl)C(OCc1ccc(-c2ccc(Cl)cc2)cc1)(C(F)(F)F)C(F)(F)F
14,182 to 184,CSc1ccc(C2(C(C)=O)C=CC=CC2)cc1 (centres undefined)
15,220 to 228,Cc1ccc(O)c(C(CCCC(c2cc(C)ccc2O)c2cc(C)ccc2O)c2cc(C)ccc2O)c1
16,192 to 193,O=c1[nH]c(CCN2CCCC(O)C2)cc2ccccc12 (centres undefined)
17,72 to 78,Cc1nnnn1C(C=CC=O)=C(c1ccc(F)cc1)c1ccc(F)cc1
18,59.5 to 60,C=CCNC(=S)C(OC)c1ccccn1 (centres undefined)
19,190 to 191,CN(C)C(=O)CC1CN=C(c2cc3cc(Oc4ccc(S(C)(=O)=O)nc4)ccc3[nH]2)S1 (centres undefined)
20,180,O=C(c1ccccc1)c1ccc(O)c(Cl)c1
21,93.4 to 93.7,CCCCCOc1c(OC)ccc(C(=O)NCCc2ccc(OCc3ccccc3)cc2)c1CCO
22,198 to 200,CCOC(=O)c1cn(-c2cccs2)c2c(F)c(F)c(F)c(C)c2c1=O
23,145 to 147,CN(N)c1ccc(-c2ccccc2)nn1
24,154 to 157,O=C(c1ccc(Cl)cc1)c1ccc(CS(=O)(=O)C(F)F)cc1

row,melting point [°C],Structure (SMILES)
1,145,CC1CCCN1CCCOc1ccc(-c2ccc(S(=O)Cc3ccccc3)nn2)cc1 (centres undefined)
2,124 to 127,CCOC(=O)C1=C(C)NC(c2nccn2C)=NC1c1ccccc1Cl (centres undefined)
3,238,CCOc1cc(-c2cc(C(F)(F)F)nc(-c3ccnc(-c4ccc(S(N)(=O)=O)s4)c3)n2)ccc1C(F)(F)F
4,161,COc1cc2c(c(OC)c1OC)-c1ccc([N+](=O)[O-])cc1COC2
5,168,O=c1oc2c(c(O)c1-c1ccccc1)CCCC2
6,96 to 97,Cc1ccc(N2CCN(CCC3CN(C)C(=O)O3)CC2)cc1C (centres undefined)
7,134 to 137,OCc1ccc2cc(Cl)ccc2c1
8,69 to 70,CCCn1cnc2c1c(=O)n(CCCCCC(C)=O)c(=O)n2C
9,167 to 170,O=C(O)CN1C(=O)SC(=Cc2ccc(OCc3ccccc3)c(OCc3ccccc3)c2)C1=O
10,110 to 112,CC(=O)c1nc2cc(Cl)c(OCC(F)(F)F)cc2cc1OCc1ccccc1
11,225,CC(C)C=NNC1=NS(=O)(=O)c2ccccc21
12,211 to 212,O=[N+]([O-])c1ccc(CS(=O)(=O)CCO)cc1CS(=O)(=O)CCO
13,181 to 183,CCc1ncnc(O)c1[N+](=O)[O-]
14,236,NC(=O)CCc1cccc(-c2nc(=O)c3ccccc3s2)n1
15,170,Cc1nc2cc(CN3CCN(C(c4ccccc4)c4ccccc4)CC3)ccc2n1CCSc1ccccc1
16,253 to 254,COC(=O)c1nc(NC(C)=O)sc1-c1ccc(SC)cc1
17,190,O=Cc1c[nH]c2cc(F)c(OCc3ccccc3)cc12
18,133 to 134,CCOc1nn(Cc2ccc(OCc3nc(-c4ccco4)oc3C)c(OC)c2)cc1CCC(=O)O
19,200 to 202,COCCc1nc2c(N)nc3cc(OCc4cccnc4)ccc3c2n1CC(C)(C)O
20,188 to 189,O=C(O)Cn1cc(Cc2nc3c(F)c(F)cc(F)c3s2)c2cc(Cl)ccc21
21,> 300,O=C(Nc1ccccc1)C1Cc2cc(Br)cc3[nH]c(=O)c(=O)n1c23 (centres undefined)
22,197 to 198,COc1ccc2oc(Cn3cnc4c(N)ncnc43)c(-c3ccccc3)c(=O)c2c1
23,225 to 226,CN1CCN(c2ccc(-c3cnc4[nH]cc(C(=O)C5(C)CCCCC5)c4n3)cc2)CC1
24,117 to 118,Cc1cc(NC(=O)N(C)c2ccccc2)cc(C)c1S(=O)(=O)C[N+](=O)[O-]

row,melting point [°C],Structure (SMILES)
1,131 to 133,O=CN1CCCN(Cc2ccc(Cl)cc2)C1=C[N+](=O)[O-]
2,294 to 296,CS(=O)(=O)c1ccc(-c2cc(C#N)c(=O)[nH]c2-c2ccc(F)cc2)cc1
3,194 to 196,COc1ccc(-c2cc(Cl)cc3c2OC(C(F)(F)F)C(C(=O)O)=C3)cc1 (centres undefined)
4,168 to 169,COC(=O)C(SC)c1ccc(N2C(=O)c3ccccc3C2=O)cc1 (centres undefined)
5,177 to 178,COc1ccc2c(c1OC)C(=O)O[C@@H]2[C@H]1c2c(c(N=[N+]=[N-])c3c(c2OC)OCO3)CCN1C
6,> 300,N#Cc1ccc(/C=C/c2nc[nH]c2[N+](=O)[O-])cc1
7,154 to 155,N#CCCNC(=O)c1cccc(-c2ccc3c(c2)C(c2ccc(Cl)cc2Cl)CCO3)c1 (centres undefined)
8,180 to 183,CC(C)CCc1c(-c2ccc(S(N)(=O)=O)cc2)cnn(-c2ccc(F)cc2)c1=O
9,215,COc1ccc(C(=O)Nc2ccncc2)c2c1oc1ccccc12
10,200 to 201,CC(C)n1nc(-c2sc(NC(=O)CCNCc3ccccn3)nc2-c2ccccc2)ccc1=O
11,209,CCS(=O)(=O)Nc1ccc(CN(CC2(c3ccccn3)CCCCC2)C(=O)Nc2c(C(C)C)cccc2C(C)C)cc1
12,220 to 223,COC(=O)c1ccc(C(=O)Nc2c(C)c(C)c3c(c2C)C(c2ccc(C(C)C)cc2)C(C)(C)O3)cc1 (centres undefined)
13,217 to 220,N#Cc1cccc(C(CC(=O)O)N2C(=O)c3ccccc3C2=O)c1 (centres undefined)
14,143 to 148,COc1cc(C=O)ccc1OCCCC(=O)O
15,176,COc1ccc2c(cccc2[C@H]2CO[C@H](CCCNC(=O)OCC(=O)NC3CC3)OC2)c1
16,87.5 to 88,COc1ccc(-n2nc(CCCO)cc2-c2ccc(Cl)cc2)cc1
17,158 to 160,CC(C)C(=O)c1c[nH]c2c(COC(=O)c3ccccc3)cccc2c1=O
18,93 to 97,Cc1nc(Oc2ccc(F)cc2)cc(Oc2ccc(F)cc2)n1
19,60 to 62,CCCCCCCNC(=O)N(C)c1cccc(-c2ccc(CCC(=O)O)cc2OCCC(C)C)c1
20,272 to 274,Cn1cc2c(=O)c(C(=O)c3ccccc3)cn(C)c2n1
21,134 to 136,CCN(CC)CCOCCC1CCCCN1C(=O)N1c2ccccc2C(=O)Nc2cccnc21 (centres undefined)
22,118,CC1(C)CC(O)c2cc(N)ccc21 (centres undefined)
23,217 to 219,CCOc1ncc(C(C)=O)cc1C(=O)Nc1c(C(N)=O)n[nH]c1CC
24,155 to 157,O=C1CCC(N2C(=O)c3cccc(CNC(=O)c4cccc(C(F)(F)F)c4F)c3C2=O)C(=O)N1 (centres undefined)

row,melting point [°C],Structure (SMILES)
1,121 to 125,COc1cccc2c(NCc3ccccc3C)nccc12
2,193 to 195,Cc1ccc(-c2nc3ccc(C(C)(C)CNC=O)cc3[nH]2)cc1
3,279 to 281,O=C(O)c1cc(F)c(N2CCNCC2)nc1Nc1ccc(F)cc1F
4,171,Cc1cc2c(cc1C#N)C(c1ccccn1)=CC(C)(C)CO2
5,160 to 163,CC(C)(C)c1cc(C(=O)NCc2ccc3c(Br)c(OC(Cc4ccccc4)C(=O)O)ccc3c2)cc(C(C)(C)C)c1 (centres undefined)
6,69 to 71,C=CCCCN(C(=O)OC(C)(C)C)c1cc(OCc2ccccc2)c2ccccc2c1I
7,74 to 75,Cc1cccc(C)c1NNC(=O)OCCCl
8,129 to 131,CSc1ccc(NC(=N)c2ccccc2)cc1
9,283 to 286,O=c1c2c(n(-c3ccccc3)c3ncccc13)CCC(O)C2 (centres undefined)
10,235 to 237,O=C1c2ccccc2C(=O)N1Cc1nnc2n1-c1ccc(Cl)cc1C(c1ccccc1F)=CC2
11,212 to 213,COC(=O)C1=C(C)NC(C)=C(C(=O)OC)N1c1cccc(N)c1
12,123 to 126,Cc1nc(-n2cc(-c3ccsc3)nn2)sc1C(=O)NCc1ccccc1
13,197,CON=CC(C)(C)NC(=O)c1c(Cl)cccc1C(=O)Nc1ccc(OC(F)(F)F)cc1C
14,119,Cc1cc2ccccc2cc1C=O
15,108 to 110,COc1ccc(/C=C/c2cc(F)cc(F)c2)cc1
16,106 to 108,CS(=O)(=O)Nc1ccc(OC[C@@H]2CO2)cc1
17,140 to 141,COc1ccc2c(c1)c(CCNC(C)=O)cn2S(=O)(=O)c1ccccc1
18,109 to 112,Cn1cc(-c2cccc(C(F)(F)F)c2)c(=O)c(-c2ccc(Cl)c(Cl)c2)c1
19,71 to 72,Cc1coc2c1C(=O)CC(c1ccccc1F)C2 (centres undefined)
20,101 to 102,O=C(COCCCl)Nc1ccc([N+](=O)[O-])cc1
21,158,Cc1cc(OS(=O)(=O)C(F)(F)F)c2cccc(OCc3ccccc3)c2n1
22,256 to 257,Oc1ccc(-c2ncc3ncc(-c4cccc(O)c4)cc3n2)cc1

row,Structure (SMILES),melting point [°C]
1,O=C1CCCN1C(=O)NCCCN1CC=C(c2ccc(Cl)c(Cl)c2)CC1,136
2,ON=C1CCC2(O)C3Cc4ccc(O)c5c4C2(CCN3CC2CC2)C1O5 (centres undefined),235 to 236
3,CCN(C(=O)C1CC1)c1cccc(-c2ccnc3c(C(=O)c4ccccc4)cnn23)c1,153 to 155
4,CCNC(=O)c1ccc(C=C2CC3CCC(C2)N3CCC(C(=O)N(C)C)(c2ccccc2)c2ccccc2)cc1,137 to 139
5,O=C1CCNc2ccccc2N1c1ccccc1,170 to 171
